Measurements from patent publication US6139840A, “Methods of eliciting an antibody response using flea protease proteins and homologs thereof” (priority 1997, dated 2000).

Legend:
[1] = tested on: soluble fed and unfed flea midgut preparations; assay type: biochemical; settings: substrate BAPNA
Text: Pellets from the centrifugation step were also collected and resuspended for analysis. Also prepared were whole flea lysates.

adult fleas = experiment: Flea feeding system: viability and fecundity of fleas fed blood containing protease inhibitors; assay type: in vivo; settings: for Adult Survival Female / Adult Survival Male / Adult Survival Total / Fecundity Days 1-7: percent of corresponding control group
Procedure: This Example evaluates the effect of a number of protease inhibitors on flea viability and fecundity in a flea feeding system as described by Wade et al. ibid.
Protease inhibitor compounds were tested in groups of 3 to 6 including appropriate control groups. Inhibitors were not tested in groups of common inhibition types. Rather, they were tested in groups based on the diluent needed to dissolve them. (AEBSF, aprotinin, bestatin, leupeptin, phosphoramidon, soybean trypsin inhibitor and soybean trypsin/chymotrypsin inhibitor were dissolved in water; E-64 and pepstatin were dissolved in ethanol). This reduced the number of control (diluent only) groups needed within a particular assay. Inhibitor concentrations were chosen such that the lower concentration used was within the range recommended by the supplier for that inhibitor. The higher concentration was typically 10 times above the lower concentration and was used to look for dose response.
The general protocol for all of the assays was as follows: Approximately 2000 newly emerged adult fleas were placed in feeding chambers to feed on normal blood for about 24 to 48 hr. The fleas were prefed for two reasons: The first was to be certain that only fleas that would feed in the feeding system were used in the comparative study.
The prefed fleas were placed in "minifeeder" feeding chambers at a ratio of about 80 female fleas to about 20 male fleas for a total of about 100 fleas per chamber. Actual total number of fleas per chamber varied from about 90 to 125 fleas. […] Three chambers were prepared for each experimental and control group. A fresh blood meal containing the appropriate inhibitor in 3 ml total volume was placed on each chamber daily through the 7 day extent of an assay.
On days 3, 5, and 7 of the assay, surviving adult fleas were transferred to clean chambers. The contents of the original chambers were dissolved in about 40 ml of PBS (phosphate-buffered saline) in a 50 ml Falcon tube. The contents of a given tube were then filtered through a preweighed #1 Whatman filter disk inserted into a vacuum filter. The 50 ml tube and the filter funnel were rinsed with distilled water which was then passed through the filter. Once the chamber contents had been filtered, dead adult fleas were removed from the filter paper and placed in a labelled tube so that they could be counted and sexed. The filter paper was then placed into a preweighed 12×75 polypropylene tube and dried in the SpeedVac for 2.5 hr with the heater on. After drying the filter paper was weighed. The weight of the filter paper and tube was subtracted to obtain the dry weight of the eggs and this value was converted to an estimated number of eggs using the formula y=41384.361x+162.37, where x=dry weight of eggs.
On day 7, adult fleas that had survived the study were frozen, counted and sexed. The numbers were added to the number of male and female fleas that had died during the assay to verify the number of male and female fleas in each chamber at the start of the study.
Female, male and total adult flea survival were calculated for all experimental and control groups on days 3, 5, and 7 of each assay. Additionally, the number of eggs per surviving female was calculated on days 3, 5 and 7. Female fleas found dead on a given collection date were included in the total number of egg-laying females for the days between that date and the previous collection date, providing a conservative estimate of fecundity. Fecundity values were averaged for the three collection dates to obtain an average for each group over 7 days.
Results of these studies are presented below in Table 1 and FIG. 6 through FIG. 9. All survival and fecundity values are presented below as a percent of control value.

[2] = at the concentrations tested in blood meal

| Compound | inhibition of ability to cleave BAPNA (proteolytic activity) [1] | Adult Survival Female (adult fleas; 2 μg/ml in blood meal) | Adult Survival Male (adult fleas; 2 μg/ml in blood meal) | Adult Survival Total (adult fleas; 2 μg/ml in blood meal) | Fecundity Days 1-7 (adult fleas; 2 μg/ml in blood meal) | Adult Survival Female (adult fleas; 20 μg/ml in blood meal) | Adult Survival Male (adult fleas; 20 μg/ml in blood meal) | Adult Survival Total (adult fleas; 20 μg/ml in blood meal) | Fecundity Days 1-7 (adult fleas; 20 μg/ml in blood meal) | effect on adult viability (adult fleas; [2]) | effect on fecundity (adult fleas; [2]) |
| --- | --- | --- | --- | --- | --- | --- | --- | --- | --- | --- | --- |
| O=S(=O)(F)Cc1ccccc1 [PMSF, phenylmethane-7-sulfonyl fluoride] | about 50% |  |  |  |  |  |  |  |  |  |  |
| Aprotinin | ~100% | 103.2% | 104.9% | 103.3% | 83.2% | 100.0% | 101.7% | 99.9% | 84.2% | no significant effect | no significant effect |
